This passage reports GI50 and TGI results from PubChem BioAssay (NCI).

What all share (assay): growth of human tumour cells (NCI), 48 h
Test [1] deals with SK-OV-3 ovarian.
Test [2] deals with HCC-2998 colon.
In test [3] the test system is MDA-MB-435.
In test [4] the test system is UACC-62 melanoma.
Test [5] has as its system TK-10 renal.
Test [6] deals with U251 CNS.
The subject of test [7] is BT-549 breast.
Test [8] deals with KM12 colon.
The test system of test [9] is HL-60(TB) leukemia.
Test [10] relates to OVCAR-3 ovarian.

The structures appear in SMILES notation. Values joined by “and” are separate entries in the source; they are usually repeats but may differ in a detail not shown here. Equal values may be shown once.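 Each compound was tested at five concentrations against cells in 96-well plates for 48 hours. GI50 marks 50% less growth. TGI denotes the concentration required for complete inhibition of growth.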

Regarding `CCN(Cc1cccc(F)c1F)c1ccc(CO)c(Cl)c1`, the GI50 in test [1] was 8.3 µM; in test [2], 5.09 µM; in test [3], 17.7 µM; in test [4], 0.0842 µM; in test [5], 0.0385 µM; in [6], 0.63 µM. Besides, the GI50 in test [7] is 18.5 µM; in test [8], 15.8 µM; in test [9], 7.25 µM; in test [10], 0.304 µM. In addition, the TGI came to 27.4 µM in test [1]; 24.6 µM in test [2]; 37.1 µM in test [3]; 0.519 µM in test [4]; 0.23 µM in test [5]; 22.2 µM in test [6]. The TGI is 35.9 µM in test [7], 31.6 µM in test [8], 41.2 µM in [9] and 1.28 µM in test [10].
With `O=C(c1ccccc1O)c1[nH]c(Cl)c(Cl)c1-n1c(C(=O)c2ccccc2O)cc(Cl)c1Cl`, the GI50 is 1.86 µM and 2.31 µM in [1]; 0.994 µM and 0.931 µM in test [2]; 1.87 µM and 1.51 µM in [3]; 0.495 µM and 0.361 µM in test [4]; 0.656 µM and 0.616 µM in test [5]; 1.29 µM and 1.42 µM in test [6]. Also, the GI50 in test [7] is 1.22 µM and 0.675 µM; in test [8] it was 1.92 µM and 0.75 µM; in test [9], 1.19 µM and 0.432 µM; in [10], 1.03 µM and 0.704 µM. In addition, the TGI in test [1] is 7.11 µM and 13.1 µM; in test [2] it was 12.7 µM and 11.6 µM; in [3], 10.6 µM and 10.4 µM; in [4] it was 3.34 µM and 2.09 µM; in [5], 10.9 µM and 12.4 µM; in test [6], 12.3 µM and 13.6 µM. Also, the TGI in test [7] was 6.74 µM and 4.96 µM; in [8], 12.1 µM and 11.9 µM; in test [9], 5.48 µM and 3.58 µM; in [10], 13.1 µM and 13.4 µM.
Turning to `Cc1cc(O)cc(C)c1/C=C/c1cncc(C(=O)OC(C)(C)C)c1`, the GI50 in [1] is 16.1 µM; in test [2], above 25 µM; in [3] it was 11.6 µM; in [4], 17 µM; in test [5], above 23.5 µM; in [6], 14.9 µM. Moreover, the GI50 in test [7] was above 20.8 µM; in test [8] it was 15.2 µM; in [9], 8.65 µM; in test [10], 17 µM. Besides, the TGI in test [1], in [2], in test [3], in test [4], in test [5] and in test [6] was above 25 µM in each case. In addition, the TGI is above 25 µM in test [7], above 25 µM in test [8], 22.7 µM in [9] and above 25 µM in [10].
As to `O=Nc1c(O)c2ccccc2c2ccccc12`, the GI50 in [1] was 2.48 µM; in [2] it was 1.91 µM; in [3], 0.179 µM; in [4] it was 0.99 µM; in test [5] it was 2.7 µM; in test [6], 0.496 µM. Besides, the GI50 in test [7] was 1.25 µM; in test [8], 1.76 µM; in test [9], 2.47 µM; in test [10] it was 0.754 µM. Besides, the TGI stood at 6.27 µM in test [1]; 3.7 µM in test [2]; 0.317 µM in test [3]; 2.37 µM in [4]; 7.9 µM in [5]; 2.09 µM in [6]. In addition, the TGI stood at 2.55 µM in [7], 3.34 µM in test [8], 7.97 µM in test [9] and 2.45 µM in [10].
Consider `NC(CO)C(=O)NCC(=O)O` (stereo not drawn), for which the TGI in test [1], in [2], in test [3], in test [4], in test [5] and in test [6] was above 100 µM throughout. For the same compound, the TGI in [7], in test [8], in [9] and in [10] was above 100 µM each time.
As to `CCN(CC)CCCNc1[nH]ncc2c(C)c3nc4ccccc4c3cc12`, the GI50 was 1.31 µM in test [1]; 0.375 µM in [2]; 0.754 µM in [3]; 2.83 µM in test [5]; 0.428 µM in test [6]; 2.08 µM in test [7]. The GI50 in test [8] was 0.355 µM; in [10] it was 0.589 µM. For the same compound, the TGI was 2.75 µM and 12.6 µM in [1]; 2.12 µM and 3.06 µM in test [2]; 2.12 µM and 4 µM in [3]; 1.96 µM and 2.08 µM in test [4]; 12.4 µM and 18.1 µM in test [5]; 1.71 µM and 3.57 µM in [6]. Besides, the TGI in test [7] was 2.75 µM and 5.17 µM; in test [8] it was 1.47 µM and 6.75 µM; in test [9] it was 1.89 µM; in [10], 3.14 µM and 7.11 µM.
For `CSc1nc(N)c2c(n1)NC(c1ccccc1)C1CCc3ccccc3C1=N2` (stereo not drawn), the GI50 was above 100 µM in test [1]; above 100 µM in [2]; 55.5 µM in test [3]; 6.01 µM in test [4]; above 100 µM in [5]; above 100 µM in test [6]. The GI50 in test [7] was above 100 µM; in test [8] it was 6.52 µM; in test [9] it was 4 µM; in test [10], 6.85 µM. Moreover, the TGI in test [1], in test [2], in [3], in test [4], in test [5] and in test [6] was above 100 µM throughout. Further, the TGI in test [7], in [8], in test [9] and in [10] was above 100 µM in each case.
With `CC1(C)CC(=O)c2c(ccc(C(=O)C[C@@H](N)CO)c2N)O1`, the GI50 in test [1] is 7.32 µM; in test [2], 0.371 µM; in [3], 2.39 µM; in test [4] it was 0.333 µM; in test [5], 9.41 µM; in test [6] it was 0.328 µM. For the same compound, the GI50 in [7] is 1.12 µM; in test [8], 0.297 µM; in [9], 4.03 µM; in test [10], 0.431 µM. Further, the TGI in test [1] is above 100 µM; in test [2] it was 4.63 µM; in test [3], above 100 µM; in test [4], 3.61 µM; in [5] it was 46.8 µM; in [6], above 100 µM. For the same compound, the TGI in test [7] is 11.9 µM; in test [8], above 91.7 µM; in test [9] it was above 63.7 µM; in test [10], above 38.2 µM.
